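Dose response: 5 concentrations. Exposure: 48 h. Format: 96-well plates. Endpoint: linear interpolation; highest concentration if not reached. TGI is the concentration that stops growth completely.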
Columns and labels:
Test in all cases: growth of human tumour cells (NCI), 48 h
786-0 renal = test system: 786-0 renal
A498 renal = test system: A498 renal
A549 NSCLC = test system: A549 NSCLC
ACHN renal = test system: ACHN renal
BT-549 breast = test system: BT-549 breast
CAKI-1 renal = test system: CAKI-1 renal
CCRF-CEM leukemia = test system: CCRF-CEM leukemia
COLO 205 colon = test system: COLO 205 colon
DU-145 prostate = test system: DU-145 prostate
EKVX NSCLC = test system: EKVX NSCLC
HCC-2998 colon = test system: HCC-2998 colon
HCT-116 colon = test system: HCT-116 colon
HCT-15 colon = test system: HCT-15 colon
HL-60(TB) leukemia = test system: HL-60(TB) leukemia
HOP-62 NSCLC = test system: HOP-62 NSCLC
HOP-92 NSCLC = test system: HOP-92 NSCLC
HS 578T breast = test system: HS 578T breast
HT29 colon = test system: HT29 colon
IGROV1 ovarian = test system: IGROV1 ovarian
KM12 colon = test system: KM12 colon
LOX IMVI melanoma = test system: LOX IMVI melanoma
M14 melanoma = test system: M14 melanoma
MALME-3M melanoma = test system: MALME-3M melanoma
MCF7 breast = test system: MCF7 breast
MDA-MB-231 breast = test system: MDA-MB-231 breast
MDA-MB-435 = test system: MDA-MB-435
MDA-N = test system: MDA-N
MOLT-4 leukemia = test system: MOLT-4 leukemia
NCI-H226 lung = test system: NCI-H226 lung
NCI-H23 lung = test system: NCI-H23 lung
NCI-H460 lung = test system: NCI-H460 lung
NCI-H522 lung = test system: NCI-H522 lung
NCI/ADR-RES ovarian = test system: NCI/ADR-RES ovarian
OVCAR-3 ovarian = test system: OVCAR-3 ovarian
OVCAR-4 ovarian = test system: OVCAR-4 ovarian
OVCAR-5 ovarian = test system: OVCAR-5 ovarian
OVCAR-8 ovarian = test system: OVCAR-8 ovarian
PC-3 prostate = test system: PC-3 prostate
RPMI-8226 leukemia = test system: RPMI-8226 leukemia
RXF 393 renal = test system: RXF 393 renal
SF-268 CNS = test system: SF-268 CNS
SF-295 CNS = test system: SF-295 CNS
SF-539 CNS = test system: SF-539 CNS
SK-MEL-2 melanoma = test system: SK-MEL-2 melanoma
SK-MEL-28 melanoma = test system: SK-MEL-28 melanoma
SK-MEL-5 melanoma = test system: SK-MEL-5 melanoma
SK-OV-3 ovarian = test system: SK-OV-3 ovarian
SN12C renal = test system: SN12C renal
SNB-19 CNS = test system: SNB-19 CNS
SNB-75 CNS = test system: SNB-75 CNS
SW-620 colon = test system: SW-620 colon
T-47D breast = test system: T-47D breast
TK-10 renal = test system: TK-10 renal
U251 CNS = test system: U251 CNS
UACC-257 melanoma = test system: UACC-257 melanoma
UACC-62 melanoma = test system: UACC-62 melanoma
UO-31 renal = test system: UO-31 renal
K-562 leukemia = test system: K-562 leukemia
SR leukemia = test system: SR leukemia

Compound: CN(CCNC(=O)c1nn(-c2ccccc2)c2c1ccc1ccccc12)CCNC(=O)c1nn(-c2ccccc2)c2c1ccc1ccccc12
- TGI (786-0 renal): 3.04 µM
- TGI (A498 renal): 5.29 µM
- TGI (A549 NSCLC): 10.6 µM
- TGI (ACHN renal): 5.51 µM
- TGI (BT-549 breast): 21.8 µM
- TGI (CAKI-1 renal): 15.6 µM
- TGI (CCRF-CEM leukemia): 9.92 µM
- TGI (COLO 205 colon): 2.99 µM
- TGI (DU-145 prostate): 70.2 µM
- TGI (EKVX NSCLC): 4.41 µM
- TGI (HCC-2998 colon): 2.92 µM
- TGI (HCT-116 colon): 2.87 µM
- TGI (HCT-15 colon): 3.39 µM
- TGI (HL-60(TB) leukemia): 3.94 µM
- TGI (HOP-62 NSCLC): 3.38 µM
- TGI (HOP-92 NSCLC): 3.79 µM
- TGI (HS 578T breast): 4.22 µM
- TGI (HT29 colon): 15.8 µM
- TGI (IGROV1 ovarian): 5.27 µM
- TGI (KM12 colon): 6.22 µM
- TGI (LOX IMVI melanoma): 3.18 µM
- TGI (M14 melanoma): 3.85 µM
- TGI (MALME-3M melanoma): 3.84 µM
- TGI (MCF7 breast): 3.91 µM
- TGI (MDA-MB-231 breast): 2.74 µM
- TGI (MDA-MB-435): 4 µM
- TGI (MDA-N): 3.19 µM
- TGI (MOLT-4 leukemia): 1.72 µM
- TGI (NCI-H226 lung): 7.7 µM
- TGI (NCI-H23 lung): 6.78 µM
- TGI (NCI-H460 lung): 2.99 µM
- TGI (NCI-H522 lung): 3.6 µM
- TGI (NCI/ADR-RES ovarian): 9.15 µM
- TGI (OVCAR-3 ovarian): 4.16 µM
- TGI (OVCAR-4 ovarian): 22.1 µM
- TGI (OVCAR-5 ovarian): 40.5 µM
- TGI (OVCAR-8 ovarian): 3.29 µM
- TGI (PC-3 prostate): 7.08 µM
- TGI (RPMI-8226 leukemia): 1.8 µM
- TGI (RXF 393 renal): 3.34 µM
- TGI (SF-268 CNS): 4.6 µM
- TGI (SF-295 CNS): 3.21 µM
- TGI (SF-539 CNS): 3.07 µM
- TGI (SK-MEL-2 melanoma): 3.5 µM
- TGI (SK-MEL-28 melanoma): 3.23 µM
- TGI (SK-MEL-5 melanoma): 3.1 µM
- TGI (SK-OV-3 ovarian): 7.28 µM
- TGI (SN12C renal): 3.46 µM
- TGI (SNB-19 CNS): 8.11 µM
- TGI (SNB-75 CNS): 5.55 µM
- TGI (SW-620 colon): 4.46 µM
- TGI (T-47D breast): 6.95 µM
- TGI (TK-10 renal): 3.37 µM
- TGI (U251 CNS): 3.05 µM
- TGI (UACC-257 melanoma): 3.22 µM
- TGI (UACC-62 melanoma): 3.37 µM
- TGI (UO-31 renal): 3.78 µM

Compound: COC(=O)CSC1CC(=O)c2c(Cl)sc(Cl)c21 (centres undefined)
- TGI (786-0 renal): > 100 µM
- TGI (A549 NSCLC): > 100 µM
- TGI (ACHN renal): > 100 µM
- TGI (BT-549 breast): > 100 µM
- TGI (CAKI-1 renal): > 100 µM
- TGI (CCRF-CEM leukemia): > 100 µM
- TGI (COLO 205 colon): > 100 µM
- TGI (DU-145 prostate): > 100 µM
- TGI (EKVX NSCLC): > 100 µM
- TGI (HCC-2998 colon): > 100 µM
- TGI (HCT-116 colon): > 100 µM
- TGI (HCT-15 colon): > 100 µM
- TGI (HOP-62 NSCLC): > 100 µM
- TGI (HOP-92 NSCLC): > 100 µM
- TGI (HS 578T breast): > 100 µM
- TGI (HT29 colon): > 100 µM
- TGI (IGROV1 ovarian): > 100 µM
- TGI (K-562 leukemia): > 100 µM
- TGI (KM12 colon): > 100 µM
- TGI (LOX IMVI melanoma): > 100 µM
- TGI (M14 melanoma): > 100 µM
- TGI (MALME-3M melanoma): > 100 µM
- TGI (MCF7 breast): > 100 µM
- TGI (MDA-MB-231 breast): > 100 µM
- TGI (MDA-MB-435): > 100 µM
- TGI (MDA-N): > 100 µM
- TGI (MOLT-4 leukemia): > 100 µM
- TGI (NCI-H23 lung): > 100 µM
- TGI (NCI-H460 lung): > 100 µM
- TGI (NCI-H522 lung): > 100 µM
- TGI (OVCAR-4 ovarian): > 100 µM
- TGI (OVCAR-5 ovarian): > 100 µM
- TGI (OVCAR-8 ovarian): > 100 µM
- TGI (PC-3 prostate): > 100 µM
- TGI (RXF 393 renal): > 100 µM
- TGI (SF-268 CNS): > 100 µM
- TGI (SF-295 CNS): > 100 µM
- TGI (SK-MEL-2 melanoma): > 100 µM
- TGI (SK-MEL-28 melanoma): > 100 µM
- TGI (SK-MEL-5 melanoma): > 100 µM
- TGI (SK-OV-3 ovarian): > 100 µM
- TGI (SN12C renal): > 100 µM
- TGI (SNB-19 CNS): > 100 µM
- TGI (SNB-75 CNS): > 100 µM
- TGI (SR leukemia): > 100 µM
- TGI (SW-620 colon): > 100 µM
- TGI (T-47D breast): > 100 µM
- TGI (TK-10 renal): > 100 µM
- TGI (U251 CNS): > 100 µM
- TGI (UACC-257 melanoma): > 100 µM
- TGI (UACC-62 melanoma): > 100 µM
- TGI (UO-31 renal): > 100 µM

Compound: COc1ccc(OC)c(NC(=O)c2c(Cl)c(Cl)c(Cl)c(Cl)c2-c2nc3ccccc3[nH]2)c1
- TGI (786-0 renal): > 100 µM
- TGI (A498 renal): > 100 µM
- TGI (A549 NSCLC): > 100 µM
- TGI (ACHN renal): > 100 µM
- TGI (BT-549 breast): > 100 µM
- TGI (CAKI-1 renal): > 100 µM
- TGI (CCRF-CEM leukemia): > 100 µM
- TGI (COLO 205 colon): > 100 µM
- TGI (DU-145 prostate): > 100 µM
- TGI (EKVX NSCLC): > 100 µM
- TGI (HCC-2998 colon): > 100 µM
- TGI (HCT-116 colon): > 100 µM
- TGI (HCT-15 colon): > 100 µM
- TGI (HL-60(TB) leukemia): > 100 µM
- TGI (HOP-62 NSCLC): > 100 µM
- TGI (HOP-92 NSCLC): > 100 µM
- TGI (HS 578T breast): > 100 µM
- TGI (HT29 colon): > 100 µM
- TGI (IGROV1 ovarian): > 100 µM
- TGI (K-562 leukemia): > 100 µM
- TGI (KM12 colon): > 100 µM
- TGI (LOX IMVI melanoma): > 100 µM
- TGI (M14 melanoma): > 100 µM
- TGI (MALME-3M melanoma): > 100 µM
- TGI (MCF7 breast): > 100 µM
- TGI (MDA-MB-435): > 100 µM
- TGI (MDA-N): > 100 µM
- TGI (MOLT-4 leukemia): > 100 µM
- TGI (NCI-H226 lung): > 100 µM
- TGI (NCI-H23 lung): > 100 µM
- TGI (NCI-H460 lung): > 100 µM
- TGI (NCI-H522 lung): > 100 µM
- TGI (NCI/ADR-RES ovarian): > 100 µM
- TGI (OVCAR-3 ovarian): > 100 µM
- TGI (OVCAR-4 ovarian): > 100 µM
- TGI (OVCAR-5 ovarian): > 100 µM
- TGI (OVCAR-8 ovarian): > 100 µM
- TGI (PC-3 prostate): > 100 µM
- TGI (RPMI-8226 leukemia): > 100 µM
- TGI (RXF 393 renal): > 100 µM
- TGI (SF-268 CNS): > 100 µM
- TGI (SF-295 CNS): > 100 µM
- TGI (SF-539 CNS): > 100 µM
- TGI (SK-MEL-28 melanoma): > 100 µM
- TGI (SK-MEL-5 melanoma): > 100 µM
- TGI (SK-OV-3 ovarian): > 100 µM
- TGI (SN12C renal): > 100 µM
- TGI (SNB-19 CNS): > 100 µM
- TGI (SNB-75 CNS): > 100 µM
- TGI (SR leukemia): > 100 µM
- TGI (SW-620 colon): > 100 µM
- TGI (T-47D breast): > 100 µM
- TGI (UACC-257 melanoma): > 100 µM
- TGI (UACC-62 melanoma): > 100 µM
- TGI (UO-31 renal): > 100 µM
